{"source": "patent US20080031982A1", "about": "(Metaproteomics, LLC, priority 2006, published 2008)", "key": {"[1]": {"assay": "Non-fasting serum glucose in db/db diabetic mice", "format": "in vivo", "experimental": "The Model—Male, C57BLKS/J m^+/m^+ Lepr^db (db/db) mice were used to assess the potential of the test materials to reduce fasting serum glucose or insulin concentrations. This strain of mice is resistant to leptin by virtue of the absence of a functioning leptin receptor.\nTesting Procedure—Test substances were administered daily by gavage in 0.2% Tween-80. Serum was collected from the retroorbital sinus before the initial dose and ninety minutes after the third and final dose. Non-fasting serum glucose was determined enzymatically by the mutarotase/glucose oxidase method and serum insulin was determined by a mouse specific ELISA.\nTesting Procedure—Test substances were administered daily by gavage in 0.2% Tween-80. Serum was collected from the retroorbital sinus before the initial dose and ninety minutes after the fifth and final dose. Non-fasting serum glucose was determined enzymatically by the mutarotase/glucose oxidase method and serum insulin was determined by a mouse specific ELISA."}, "[2]": {"test_system": "LPS-treated 3T3-L1 adipocytes", "assay": "Adiponectin secretion in LPS/3T3-L1 adipocytes", "format": "cell-based, murine", "conditions": "for concentration of maximum adiponectin stimulation / Maximum adiponectin stimulation: 100 ng/ml LPS"}, "3T3-L1 adipocytes": {"test_system": "3T3-L1 adipocytes", "assay": "Lipogenesis in 3T3-L1 adipocytes (Oil Red O / BODIPY)", "format": "cell-based, murine", "conditions": "for adipogenic / lipogenic response: relative to solvent and positive controls", "experimental": "Prior to experiments, cells were cultured in DMEM containing 10% FBS-HI added 50 units penicillin/ml and 50 μg streptomycin/ml, and maintained in log phase prior to experimental setup. Cells were grown in a 5% CO2 humidified incubator at 37° C. Components of the pre-confluent medium included (1) 10% FBS/DMEM containing 4.5 g glucose/L; (2) 50 U/ml penicillin; and (3) 50 μg/ml streptomycin. Growth medium was made by adding 50 ml of heat inactivated FBS and 5 ml of penicillin/streptomycin to 500 ml DMEM. This medium was stored at 4° C. Before use, the medium was warmed to 37° C. in a water bath.\n3T3-T1 cells were seeded at an initial density of 6×10^4 cells/cm^2 in 24-well plates. For two days, the cells were allowed grow to reach confluence. Following confluence, the cells were forced to differentiate into adipocytes by the addition of differentiation medium; this medium consisted of (1) 10% FBS/DMEM (high glucose); (2) 0.5 mM methylisobutylxanthine; (3) 0.5 μM dexamethasone and (4) 10 μg/ml insulin (MDI medium). After three days, the medium was changed to post-differentiation medium consisting of 10 μg/ml insulin in 10% FBS/DMEM.\nWhenever fresh media were added, fresh test material was also added.\nOil Red 0 Staining—Triglyceride content of D6/D7-differentiated 3T3-L1 cells was estimated with Oil Red 0 according to the method of Kasturi and Joshi [Kasturi, R. and Joshi, V. C. […] Monolayer cells were washed with PBS (phosphate buffered saline, Mediatech) and fixed with 10% formaldehyde for ten minutes. Fixed cells were stained with an Oil Red 0 working solution of three parts 0.6% Oil Red O/isopropanol stock solution and two parts water for one hour and the excess stain was washed once with water. The resulting stained oil droplets were extracted from the cells with isopropanol and quantified by spectrophotometric analysis at 540 nm (MEL312e BIO-KINETICS READER, Bio-Tek Instruments, Winooski, Vt.).\nBriefly, media were removed and cells were washed once with non-sterile PBS. A stock 1000× BODIPY/DMSO solution was made by dissolving 1 mg BODIPY in 1 ml DMSO (1,000 μg BODIPY/ml). […] One-hundred μl of this working solution (1 μg BODIPY) was added to each well of a 96-well microtiter plate. After 15 min on an orbital shaker (DS-500, VWR Scientific Products, South Plainfield, N.J.) at ambient temperature, the cells were washed with 100 μl PBS followed by the addition of 100 μl PBS for reading for spectrofluorometric determination of BODIPY incorporation into the cells.\nNonpolar lipid incorporation was represented relative to the nonpolar lipid accumulation of fully differentiated cells in the solvent controls."}, "PGE2 biosynthesis": {"test_system": "PGE2 biosynthesis", "assay": "PGE2 biosynthesis in A549 cells stimulated by mite dust allergen", "format": "cell-based, human", "conditions": "10 μg/ml", "description": "Mite dust allergen isolation—Dermatophagoides farinae is the American house dust mite. D. farinae were raised on a 1:1 ratio of Purina Laboratory Chow (Ralston Purina, Co, St. Louis, Mo.) and Fleischmann's granulated dry yeast (Standard Brands, Inc. New York, N.Y.) at room temperature and 75% humidity. Live mites were aspirated from the culture container as they migrated from the medium, killed by freezing, desiccated and stored at 0% humidity. The allergenic component of the mite dust was extracted with water at ambient temperature. Five-hundred mg of mite powder were added to 5 ml of water (1:10 w/v) in a 15 ml conical centrifuge tube (VWR, Rochester, N.Y.), shaken for one minute and allowed to stand overnight at ambient temperature. The next day, the aqueous phase was filtered using a 0.2 μm disposable syringe filter (Nalgene, Rochester, N.Y.). The filtrate was termed mite dust allergen and used to test for induction of PGE2 biosynthesis in A549 pulmonary epithelial cells.\nCell culture and treatment—The human airway epithelial cell line, A549 (American Type Culture Collection, Bethesda, Md.) was cultured and treated as previously described in Example 6. Mite allergen was added to the culture medium to achieve a final concentration of 1000 ng/ml. Eighteen hours later, the media were sampled for PGE2 determination."}, "[3]": {"test_system": "insulin-resistant 3T3-L1 adipocytes", "assay": "Adiponectin secretion from insulin-resistant 3T3-L1 adipocytes", "format": "cell-based, murine", "conditions": "50.0 μg/ml, ratio of the indices (Table 21)", "experimental": "3T3-L1 cells were seeded at an initial density of 1×10^4 cells/cm^2 in 96-well plates. For two days, the cells were allowed grow to reach confluence. Following confluence, the cells were forced to differentiate into adipocytes by the addition of differentiation medium; this medium consisted of (1) 10% FBS/DMEM (high glucose); (2) 0.5 mM methylisobutylxanthine; (3) 0.5 μM dexamethasone and (4) 10 μg/ml insulin (MDI medium). From Day 3 through Day 5, the medium was changed to post-differentiation medium consisting of 10 μg/ml insulin in 10% FBS/DMEM.\nBriefly, on Day 6, cells were maintained in serum-free media containing 0.5% bovine serum albumin (BSA) for three hours and then treated with 1 μg insulin/ml plus solvent or insulin plus test material. […] Twenty-four hours later, the supernatant medium was sampled for adiponectin determination.\nAdiponectin Assay—The adiponectin secreted into the medium was quantified using the Mouse Adiponectin Quantikine® Immunoassay kit with no modifications (R&D Systems, Minneapolis, Minn.).\nSubstituting {relative adiponectin secretion/[concentration]} for the independent variable v/[S] and {relative adiponectin secretion} for the dependant variable {v}, produced a relationship of the form y=mx+b. […]"}, "[4]": {"test_system": "LPS-stimulated 3T3-L1 adipocytes", "assay": "IL-6 secretion in LPS/3T3-L1 adipocytes", "format": "cell-based, murine", "conditions": "at the concentration of maximum inhibition, 100 ng LPS/ml; for IL-6 Index: indexed to LPS control"}, "[5]": {"assay": "Serum cytokine (IL-6, TNF-α) analysis, collagen induced arthritis", "format": "in vivo, DBA/J mice", "conditions": "10 mg/kg", "experimental": "Cytokine analysis—Serum was collected from the mice at the termination of the experiment for cytokine analysis. The volume of sample being low (˜0.2-0.3 ml/mouse), samples from the ten mice were randomly allocated into two pools of five animals each. This was done so to permit repeat analyses; each analysis was performed a minimum of two times. TNF-α and IL-6 were analyzed using mouse specific reagents (R&D Systems, Minneapolis, Minn.) according to the manufacturer's instructions."}, "[6]": {"test_system": "TNFα-treated 3T3-L1 adipocytes", "assay": "Adiponectin secretion from TNFα-treated 3T3-L1 adipocytes", "format": "cell-based, murine", "conditions": "for maximum increase of adiponectin secretion from TNFα control: 10 ng/ml TNFα", "experimental": "For two days, the cells were allowed grow to reach confluence. […] (3) 0.5 μM dexamethasone and (4) 10 μg/ml insulin (MDI medium). […] Adiponectin Assay—The adiponectin secreted into the medium was quantified using the Mouse Adiponectin Quantikine® Immunoassay kit with no modifications (R&D Systems, Minneapolis, Minn.). […] Statistical Calculations and Interpretation—All assays were preformed in duplicate. […] Differences among the doses and test agents were determined using the Student's t-test without correction for multiple comparisons; the nominal five percent probability of a type I error was selected."}, "[7]": {"conditions": "at the concentration of maximum stimulation"}}, "note": "Marks after values point to notes of the source that are not given here."}
{"compound": "CN(CCOc1ccc(CC2SC(=O)NC2=O)cc1)c1ccccn1", "note": "(centres unmarked) [rosiglitazone]", "values": [{"measurement": "Glucose [% Pretreatment]", "setting": "[1]; 1.0 mg/kg-day by gavage, three days, db/db mice, non-fasting serum", "value": "83.0# % Pretreatment"}]}
{"compound": "CC(C)Cc1ccc(C(C)C(=O)O)cc1", "note": "(centres unmarked) [ibuprofen]", "values": [{"measurement": "concentration of maximum adiponectin stimulation", "setting": "[2]", "value": 0.625, "unit": "µg/mL"}, {"measurement": "% Stimulation of adiponectin secretion (maximum)", "setting": "[2]; [7]", "value": 22, "unit": "%"}]}
{"compound": "CN(C)C(=N)N=C(N)N", "note": "[metformin, reference compound]", "values": [{"measurement": "lipogenic index (triglyceride content relative to solvent control)", "setting": "3T3-L1 adipocytes; Oil Red O, 50 μg/ml", "value": 0.79}, {"measurement": "serum glucose relative to controls", "setting": "[1]; three consecutive days", "value": "decreased"}]}
{"compound": "CC(=O)Oc1ccccc1C(=O)O", "note": "[Aspirin, aspirin]", "values": [{"measurement": "Maximum adiponectin stimulation", "setting": "[2]", "value": "failed to induce adiponectin secretion"}]}
{"compound": "Beta acids", "values": [{"measurement": "Percent PGE2 Inhibition", "setting": "PGE2 biosynthesis", "value": 83, "unit": "%"}, {"measurement": "adipogenic / lipogenic response", "setting": "3T3-L1 adipocytes", "value": "comparable to indomethacin and troglitazone"}]}
{"compound": "CC(C)CCC1=C(O)C(C(=O)C(C)C)=C(O)C(CCC(C)C)(CCC(C)C)C1=O", "note": "[Hexahydrocolupulone (HHCL)]", "values": [{"measurement": "Adiponectin/IL-6", "setting": "[3]", "value": "0.60#"}]}
{"compound": "COc1ccc2c(c1)c(CC(=O)O)c(C)n2C(=O)c1ccc(Cl)cc1", "note": "[Indomethacin, indomethacin]", "values": [{"measurement": "adipogenic / lipogenic response", "setting": "3T3-L1 adipocytes", "value": "induced lipogenesis"}, {"measurement": "% Inhibition of IL-6 secretion (maximum)", "setting": "[4]", "value": "53* %"}, {"measurement": "Maximum adiponectin stimulation", "setting": "[2]", "value": 9, "unit": "%"}, {"measurement": "% Stimulation of adiponectin secretion (maximum)", "setting": "[2]; [7]", "value": 9, "unit": "%"}]}
{"compound": "C[C@]12C=CC(=O)C=C1CC[C@@H]1[C@@H]2[C@@H](O)C[C@@]2(C)[C@H]1CC[C@]2(O)C(=O)CO", "note": "[prednisolone]", "values": [{"measurement": "reduction of serum IL-6 levels", "setting": "[5]", "value": "reached a statistical significance"}]}
{"compound": "CCc1ccc(CCOc2ccc(CC3SC(=O)NC3=O)cc2)nc1", "note": "(centres unmarked) [Pioglitazone, pioglitazone]", "values": [{"measurement": "maximum increase of adiponectin secretion from TNFα control", "setting": "[6]", "value": 80, "unit": "%"}, {"measurement": "Adiponectin Index Observed", "setting": "[6]; 1.0 μg/ml (Table 26)", "value": 1.80}, {"measurement": "IL-6 Index", "setting": "[4]", "value": "0.37*"}, {"measurement": "concentration of maximum adiponectin stimulation", "setting": "[2]", "value": 1.25, "unit": "µg/mL"}, {"measurement": "% Stimulation of adiponectin secretion (maximum)", "setting": "[2]; [7]", "value": 12, "unit": "%"}]}
{"compound": "CC(C)CCC1=C(O)C(C(=O)C(C)C)=C(O)C(CCC(C)C)(CCC(C)C)C1=O", "note": "[Hexahydro colupulone, hexahydrocolupulone]", "values": [{"measurement": "adipogenic / lipogenic response", "setting": "3T3-L1 adipocytes", "value": "failed to elicit a lipogenic response greater than the solvent controls"}]}
{"compound": "Cc1c(C)c2c(c(C)c1O)CCC(C)(COc1ccc(CC3SC(=O)NC3=O)cc1)O2", "note": "(centres unmarked) [Troglitazone, troglitazone]", "values": [{"measurement": "maximum increase of adiponectin secretion from TNFα control", "setting": "[6]", "value": 51, "unit": "%"}, {"measurement": "concentration of maximum adiponectin stimulation", "setting": "[2]", "value": 0.625, "unit": "µg/mL"}, {"measurement": "% Stimulation of adiponectin secretion (maximum)", "setting": "[2]; [7]", "value": 15, "unit": "%"}]}
{"compound": "O=C(O)c1ccccc1O", "note": "[salicylic acid]", "values": [{"measurement": "IL-6 Index", "setting": "[4]", "value": "0.52*"}, {"measurement": "Maximum adiponectin stimulation", "setting": "[2]", "value": "failed to induce adiponectin secretion"}, {"measurement": "Adiponectin Index", "setting": "[2]; at the concentration of maximum stimulation, indexed to LPS control", "value": 0.96}]}
